Laboratory results: article PMC10938783, “A novel pan-PI3K inhibitor KTC1101 synergizes with anti-PD-1 therapy by targeting tumor suppression and immune activation” (Molecular Cancer, 2024)

Tested on: B16 cells gene expression
Test: RNA-Seq (DEGs, GSEA, heatmaps) of B16 cells
Settings: B16 cells, KTC 0.2μM

COc1cc(N)cc2c1nc(C(F)F)n2-c1nc(N2CCCOCC2)nc(N2CCOCC2)n1 [KTC1101, 2-(difluoromethyl)-4-methoxy-1-(4-morpholino-6-(1,4-oxazepan-4-yl)-1,3,5-triazin-2-yl)-1H-benzo[d]imidazol-6-amine]
enrichmentScore: Complement and coagulation cascades (GSEA KEGG mmu04610): 0.6389
NES: Neutrophil extracellular trap formation (GSEA KEGG mmu04613): 1.259
enrichmentScore: Neutrophil extracellular trap formation (GSEA KEGG mmu04613): 0.3655
NES: Toll-like receptor signaling pathway (GSEA KEGG mmu04620): 1.2254
enrichmentScore: Toll-like receptor signaling pathway (GSEA KEGG mmu04620): 0.3682
NES: NOD-like receptor signaling pathway (GSEA KEGG mmu04621): 1.434
enrichmentScore: NOD-like receptor signaling pathway (GSEA KEGG mmu04621): 0.4008
NES: C-type lectin receptor signaling pathway (GSEA KEGG mmu04625): 1.433
enrichmentScore: C-type lectin receptor signaling pathway (GSEA KEGG mmu04625): 0.4281
NES: JAK-STAT signaling pathway (GSEA KEGG mmu04630): 1.466
enrichmentScore: JAK-STAT signaling pathway (GSEA KEGG mmu04630): 0.4286
NES: Hematopoietic cell lineage (GSEA KEGG mmu04640): 1.336
enrichmentScore: Hematopoietic cell lineage (GSEA KEGG mmu04640): 0.501
NES: IL-17 signaling pathway (GSEA KEGG mmu04657): 1.494
enrichmentScore: IL-17 signaling pathway (GSEA KEGG mmu04657): 0.4654
NES: Th17 cell differentiation (GSEA KEGG mmu04659): 1.198
enrichmentScore: Th17 cell differentiation (GSEA KEGG mmu04659): 0.3665
NES: Fc epsilon RI signaling pathway (GSEA KEGG mmu04664): -1.329
enrichmentScore: Fc epsilon RI signaling pathway (GSEA KEGG mmu04664): -0.3636
NES: TNF signaling pathway (GSEA KEGG mmu04668): 1.66
enrichmentScore: TNF signaling pathway (GSEA KEGG mmu04668): 0.4756
NES: Circadian rhythm (GSEA KEGG mmu04710): -1.714
enrichmentScore: Circadian rhythm (GSEA KEGG mmu04710): -0.5347
NES: Circadian entrainment (GSEA KEGG mmu04713): 1.598
enrichmentScore: Circadian entrainment (GSEA KEGG mmu04713): 0.4957
NES: Synaptic vesicle cycle (GSEA KEGG mmu04721): -1.378
enrichmentScore: Synaptic vesicle cycle (GSEA KEGG mmu04721): -0.3771
NES: Neurotrophin signaling pathway (GSEA KEGG mmu04722): 1.347
enrichmentScore: Neurotrophin signaling pathway (GSEA KEGG mmu04722): 0.3745
NES: Glutamatergic synapse (GSEA KEGG mmu04724): 1.249
enrichmentScore: Glutamatergic synapse (GSEA KEGG mmu04724): 0.3819
NES: Cholinergic synapse (GSEA KEGG mmu04725): 1.403
enrichmentScore: Cholinergic synapse (GSEA KEGG mmu04725): 0.4174
NES: Olfactory transduction (GSEA KEGG mmu04740): 1.83
enrichmentScore: Olfactory transduction (GSEA KEGG mmu04740): 0.66
NES: Taste transduction (GSEA KEGG mmu04742): 1.885
enrichmentScore: Taste transduction (GSEA KEGG mmu04742): 0.7021
NES: Regulation of actin cytoskeleton (GSEA KEGG mmu04810): 1.182
enrichmentScore: Regulation of actin cytoskeleton (GSEA KEGG mmu04810): 0.312
NES: Motor proteins (GSEA KEGG mmu04814): -1.623
enrichmentScore: Motor proteins (GSEA KEGG mmu04814): -0.3694
NES: Insulin secretion (GSEA KEGG mmu04911): 1.364
enrichmentScore: Insulin secretion (GSEA KEGG mmu04911): 0.4349
NES: Ovarian steroidogenesis (GSEA KEGG mmu04913): 1.397
enrichmentScore: Ovarian steroidogenesis (GSEA KEGG mmu04913): 0.499
NES: Progesterone-mediated oocyte maturation (GSEA KEGG mmu04914): -1.352
enrichmentScore: Progesterone-mediated oocyte maturation (GSEA KEGG mmu04914): -0.3392
NES: Thyroid hormone synthesis (GSEA KEGG mmu04918): 1.21
enrichmentScore: Thyroid hormone synthesis (GSEA KEGG mmu04918): 0.3822
NES: Thyroid hormone signaling pathway (GSEA KEGG mmu04919): -1.193
enrichmentScore: Thyroid hormone signaling pathway (GSEA KEGG mmu04919): -0.278
NES: Oxytocin signaling pathway (GSEA KEGG mmu04921): 1.2549
enrichmentScore: Oxytocin signaling pathway (GSEA KEGG mmu04921): 0.3525
NES: Glucagon signaling pathway (GSEA KEGG mmu04922): -1.435
enrichmentScore: Glucagon signaling pathway (GSEA KEGG mmu04922): -0.3522
NES: Regulation of lipolysis in adipocytes (GSEA KEGG mmu04923): 1.37
enrichmentScore: Regulation of lipolysis in adipocytes (GSEA KEGG mmu04923): 0.4649
NES: Renin secretion (GSEA KEGG mmu04924): 1.644
enrichmentScore: Renin secretion (GSEA KEGG mmu04924): 0.5567
NES: Aldosterone synthesis and secretion (GSEA KEGG mmu04925): 1.273
enrichmentScore: Aldosterone synthesis and secretion (GSEA KEGG mmu04925): 0.3803
NES: Relaxin signaling pathway (GSEA KEGG mmu04926): 1.257
enrichmentScore: Relaxin signaling pathway (GSEA KEGG mmu04926): 0.3545
NES: Cortisol synthesis and secretion (GSEA KEGG mmu04927): 1.396
enrichmentScore: Cortisol synthesis and secretion (GSEA KEGG mmu04927): 0.4573
NES: Parathyroid hormone synthesis, secretion and action (GSEA KEGG mmu04928): 1.74
enrichmentScore: Parathyroid hormone synthesis, secretion and action (GSEA KEGG mmu04928): 0.5119
NES: Insulin resistance (GSEA KEGG mmu04931): -1.682
enrichmentScore: Insulin resistance (GSEA KEGG mmu04931): -0.394
NES: AGE-RAGE signaling pathway in diabetic complications (GSEA KEGG mmu04933): 1.385
enrichmentScore: AGE-RAGE signaling pathway in diabetic complications (GSEA KEGG mmu04933): 0.4005
NES: Growth hormone synthesis, secretion and action (GSEA KEGG mmu04935): 1.209
enrichmentScore: Growth hormone synthesis, secretion and action (GSEA KEGG mmu04935): 0.3459
NES: Collecting duct acid secretion (GSEA KEGG mmu04966): -1.6527
enrichmentScore: Collecting duct acid secretion (GSEA KEGG mmu04966): -0.5648
NES: Gastric acid secretion (GSEA KEGG mmu04971): 1.497
enrichmentScore: Gastric acid secretion (GSEA KEGG mmu04971): 0.4728
NES: Carbohydrate digestion and absorption (GSEA KEGG mmu04973): 1.258
enrichmentScore: Carbohydrate digestion and absorption (GSEA KEGG mmu04973): 0.4436
NES: Protein digestion and absorption (GSEA KEGG mmu04974): 1.8879
enrichmentScore: Protein digestion and absorption (GSEA KEGG mmu04974): 0.6074
